Data: patent US20060069064A1, “Methods for facilitating recovery of functions of endogenous or implanted or transplanted stem cells using hyaluronic acid” (priority 2003, published 2006)

Key:
5-FU-treated mice [1] = conditions: mouse, in vivo
Procedure: 5-FU was intraperitoneally injected in mice at 150 mg/kg. The counts of white blood cells (WBC), red blood cells (RBC), platelets (PLT), hemoglobin (HGB) and hematocrit (HCT) were monitored daily for two weeks. As expected, the treatment of mice with 5-FU induced severe bone marrow hypoplasia and pancytopenia. The numbers of WBC and PLT dropped from 8.4±1.5×10^6/ml and 678.4±82×10^6/ml before 5-FU administration to 2.52±0.5×10^6/ml and 388±50×10^6/ml, respectively, 7 days later (FIGS. 1A, B). The total number of mononuclear cells in the bone marrow decreased from 15.3±2.2×10^6/femur before to 5.00±0.65×10^6/femur 7 days after 5-FU administration (FIG. 2A). All parameters were recovered to normal in 14 days after 5-FU administration. To examine the effect of HA on 5-FU-perturbed hematopoiesis, 5-FU-treated (day 0) mice were administered 100 μg/mouse HA as a 0.05% solution in PBS (HA from Sigma-Aldrich, Catalog No.: H1751) on days 4, 6, 10, and 13. A control group of animals was treated with a 200-μl injection of PBS. The peripheral blood from HA- and PBS-treated mice was collected daily and examined for numbers of WBC, RBC, PLT, HGB, and HCT. […] The number of PLT in HA-treated mice was increased starting from day 5 and was elevated by a factor of 1.7 on day 8 (FIG. 1B). […]

5-FU-treated mice [2] = experiment: Bone marrow hematopoiesis in 5-FU-treated mice (cell counts, morphological analysis); format: in vivo; conditions: 7 days after 5-FU 150 mg/kg i.p.; 15.3±2.2 before
Procedure: Because mature blood cells are a product of proliferation and differentiation of hematopoietic progenitors, we next examined the effect of HA on bone marrow hematopoiesis in 5-FU-treated mice. 5-FU-treated mice (day 0) were administered PBS or 100 μg/mouse HA (as a 0.05%solution in PBS) on day 4, 6, 10, and 13. Bone marrow cells were harvested on days 7, 14, 21, and 28. On day 7 the total number of bone marrow cells in the HA-treated mice was 3.5-fold higher in comparison to the PBS-treated mice (FIG. 2A). To evaluate the effect of HA on different hematopoietic lineages, a morphological analysis of the bone marrow cells was performed as followed. […]
To examine this assumption, bone marrow cells were cultured in methylcellulose to evaluate the number of proliferating lineage-committed progenitors. […] Colonies containing more then 20 cells were counted under the inverted microscope after 7 days of culture. […] Colonies containing at least 500 cells were counted after 14 days. […] We next investigated whether HA stimulation benefited the pool of committed progenitors at the cost of damaging more primitive progenitors that were measured by using a long-term culture-initiating cells (LTC-IC) assay. The number of LTC-IC in the bone marrow of mice treated with HA was evaluated using a limited dilution assay. […]

time until all parameters recovered to normal after 5-FU administration (5-FU-treated mice [1]): 14 days
total number of mononuclear cells in the bone marrow (5-FU-treated mice [2]): 5.00±0.65 ×10^6/femur
Compound: O=c1[nH]cc(F)c(=O)[nH]1 [5-FU, 5-fluorouracil]
